We go through eight compounds from patent US20240166635A1, “AMINOHETEROARYL KINASE INHIBITORS” (Anrui Biomedical Technology (Guangzhou) Co.,Ltd., priority 2020, published 2024).

The subject of experiment [1] is ER+BC. As to conditions: cited from earlier work.
In experiment [2] the target is CDK2/CyclinE1 (Homo sapiens (Human), UniProt P24941). Kind of experiment: CDK2/CyclinE1 kinase inhibitory activity (Caliper mobility shift). The format is biochemical. As to conditions: read-out: CDK2/Cyclin El IC50.
Experiment [3] has as its target CDK1/CyclinB (Homo sapiens (Human), UniProt P06493). Kind of experiment: CDK1/CyclinB kinase inhibitory activity (Caliper mobility shift). The format is biochemical. As to conditions: read-out: CDK1/Cyclin B1 IC50.
Experiment [4] concerns the target CDK4/Cyclin D1 (Homo sapiens (Human), UniProt P11802). Put plainly: CDK4/CyclinD1 kinase inhibitory activity (Caliper mobility shift). The format is biochemical.
Experiment [5] deals with CDK6/CyclinD1 (Homo sapiens (Human), UniProt Q00534). Kind of experiment: CDK6/CyclinD1 kinase inhibitory activity (Caliper mobility shift). The format is biochemical. Particulars: read-out: CDK6/Cyclin D1 IC50.
For experiment [6], the target named is CDK7/CyclinH/MAT1 (Homo sapiens (Human), UniProt P50613). Kind of experiment: CDK7/CyclinH/MAT1 kinase inhibitory activity (Caliper mobility shift). The format is biochemical.
Experiment [7] concerns the target CDK9/CyclinT1 (Homo sapiens (Human), UniProt P50750). Put plainly: CDK9/CyclinT1 kinase inhibitory activity (Caliper mobility shift). The format is biochemical. Particulars: read-out: CDK9/Cyclin T1 IC50.

Read-outs that look alike come from different tables or passages of the source.

Sequence of CDK9/CyclinT1 (P50750 whole entry): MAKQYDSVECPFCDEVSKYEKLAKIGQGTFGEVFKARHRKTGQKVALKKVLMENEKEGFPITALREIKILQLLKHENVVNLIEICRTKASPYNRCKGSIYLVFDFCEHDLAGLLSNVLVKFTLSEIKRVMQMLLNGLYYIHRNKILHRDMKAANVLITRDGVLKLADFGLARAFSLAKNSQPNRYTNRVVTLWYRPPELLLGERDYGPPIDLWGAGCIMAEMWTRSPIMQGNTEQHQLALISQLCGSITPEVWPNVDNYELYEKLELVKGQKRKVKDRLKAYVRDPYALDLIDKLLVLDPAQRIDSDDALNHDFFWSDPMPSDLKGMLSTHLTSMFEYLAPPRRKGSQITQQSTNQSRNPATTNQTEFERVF
Sequence of CDK9/CyclinT1 (O60563 whole entry partner): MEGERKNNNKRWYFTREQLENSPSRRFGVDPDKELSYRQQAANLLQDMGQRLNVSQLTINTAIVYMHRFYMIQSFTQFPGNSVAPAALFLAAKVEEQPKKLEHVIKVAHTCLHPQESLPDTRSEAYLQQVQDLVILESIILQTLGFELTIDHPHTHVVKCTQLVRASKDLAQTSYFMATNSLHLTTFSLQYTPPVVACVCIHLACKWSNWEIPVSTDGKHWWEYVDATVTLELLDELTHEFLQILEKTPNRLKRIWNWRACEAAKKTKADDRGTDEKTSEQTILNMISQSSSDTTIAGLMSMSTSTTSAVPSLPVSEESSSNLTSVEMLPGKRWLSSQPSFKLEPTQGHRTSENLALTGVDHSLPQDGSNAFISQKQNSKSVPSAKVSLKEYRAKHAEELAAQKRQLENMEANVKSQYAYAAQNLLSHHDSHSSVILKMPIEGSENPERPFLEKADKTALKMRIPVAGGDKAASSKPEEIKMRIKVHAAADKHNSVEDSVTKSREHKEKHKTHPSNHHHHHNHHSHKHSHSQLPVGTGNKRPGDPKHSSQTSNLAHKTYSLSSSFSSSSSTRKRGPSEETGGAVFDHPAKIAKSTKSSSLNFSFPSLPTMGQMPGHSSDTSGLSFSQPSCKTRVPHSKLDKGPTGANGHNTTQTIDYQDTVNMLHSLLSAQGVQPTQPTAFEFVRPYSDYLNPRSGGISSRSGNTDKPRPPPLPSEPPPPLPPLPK
Sequence of CDK1/CyclinB (P06493 whole entry): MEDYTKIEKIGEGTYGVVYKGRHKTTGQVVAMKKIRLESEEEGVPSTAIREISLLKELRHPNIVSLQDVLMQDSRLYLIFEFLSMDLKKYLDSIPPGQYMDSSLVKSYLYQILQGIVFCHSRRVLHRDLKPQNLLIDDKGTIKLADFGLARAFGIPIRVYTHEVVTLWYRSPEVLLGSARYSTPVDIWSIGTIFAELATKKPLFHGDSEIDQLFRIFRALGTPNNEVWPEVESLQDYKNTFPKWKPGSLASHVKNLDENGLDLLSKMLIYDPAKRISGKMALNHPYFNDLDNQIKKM
Sequence of CDK1/CyclinB (P14635 whole entry partner): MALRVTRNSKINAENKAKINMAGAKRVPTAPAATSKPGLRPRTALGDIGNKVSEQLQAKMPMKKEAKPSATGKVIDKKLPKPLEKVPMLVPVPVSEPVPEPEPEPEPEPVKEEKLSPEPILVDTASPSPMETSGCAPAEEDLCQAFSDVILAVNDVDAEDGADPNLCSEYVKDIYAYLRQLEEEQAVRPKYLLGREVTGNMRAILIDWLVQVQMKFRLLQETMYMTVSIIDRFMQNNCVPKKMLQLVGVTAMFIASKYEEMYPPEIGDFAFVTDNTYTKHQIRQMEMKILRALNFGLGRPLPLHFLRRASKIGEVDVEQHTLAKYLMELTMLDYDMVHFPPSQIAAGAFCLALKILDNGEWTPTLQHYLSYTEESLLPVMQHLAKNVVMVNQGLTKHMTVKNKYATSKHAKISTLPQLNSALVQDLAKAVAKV
Sequence of CDK7/CyclinH/MAT1 (P50613 whole entry): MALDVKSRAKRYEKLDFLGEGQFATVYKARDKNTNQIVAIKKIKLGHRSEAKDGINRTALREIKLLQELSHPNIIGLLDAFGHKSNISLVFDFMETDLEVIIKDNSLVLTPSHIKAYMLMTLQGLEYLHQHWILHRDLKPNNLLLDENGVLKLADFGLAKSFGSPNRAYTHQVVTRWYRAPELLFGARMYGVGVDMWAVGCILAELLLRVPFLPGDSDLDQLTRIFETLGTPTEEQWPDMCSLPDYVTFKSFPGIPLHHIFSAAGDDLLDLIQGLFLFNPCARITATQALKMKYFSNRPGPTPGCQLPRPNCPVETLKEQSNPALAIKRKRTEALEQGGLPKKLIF
Sequence of CDK7/CyclinH/MAT1 (P51946 whole entry partner): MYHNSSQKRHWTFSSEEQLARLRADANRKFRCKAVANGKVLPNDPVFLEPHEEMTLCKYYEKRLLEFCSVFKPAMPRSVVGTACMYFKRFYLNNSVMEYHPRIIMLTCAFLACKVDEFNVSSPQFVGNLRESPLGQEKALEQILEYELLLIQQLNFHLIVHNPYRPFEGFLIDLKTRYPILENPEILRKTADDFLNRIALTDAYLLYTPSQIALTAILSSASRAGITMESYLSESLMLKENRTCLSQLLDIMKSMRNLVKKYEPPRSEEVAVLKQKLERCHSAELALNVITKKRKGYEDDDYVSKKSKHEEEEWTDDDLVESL
Sequence of CDK7/CyclinH/MAT1 (P51948 whole entry partner): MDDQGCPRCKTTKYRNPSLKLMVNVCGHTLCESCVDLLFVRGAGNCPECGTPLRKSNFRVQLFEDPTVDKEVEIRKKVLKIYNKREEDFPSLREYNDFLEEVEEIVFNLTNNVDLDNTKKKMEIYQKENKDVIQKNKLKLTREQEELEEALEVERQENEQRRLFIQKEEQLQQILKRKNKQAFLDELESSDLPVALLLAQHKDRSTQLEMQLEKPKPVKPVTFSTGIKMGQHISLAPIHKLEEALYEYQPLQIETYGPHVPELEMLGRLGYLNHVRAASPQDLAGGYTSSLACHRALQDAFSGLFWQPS
Sequence of CDK4/Cyclin D1 (P11802 whole entry): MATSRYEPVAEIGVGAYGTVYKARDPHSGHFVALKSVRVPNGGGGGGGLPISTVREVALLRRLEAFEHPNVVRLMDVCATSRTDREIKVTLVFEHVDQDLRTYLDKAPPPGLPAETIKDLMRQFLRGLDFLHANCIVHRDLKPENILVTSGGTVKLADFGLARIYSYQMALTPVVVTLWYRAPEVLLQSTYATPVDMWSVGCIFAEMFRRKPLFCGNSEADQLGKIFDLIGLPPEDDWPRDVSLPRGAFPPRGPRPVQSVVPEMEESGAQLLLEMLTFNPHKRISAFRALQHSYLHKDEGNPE
Sequence of CDK4/Cyclin D1 (P24385 whole entry partner): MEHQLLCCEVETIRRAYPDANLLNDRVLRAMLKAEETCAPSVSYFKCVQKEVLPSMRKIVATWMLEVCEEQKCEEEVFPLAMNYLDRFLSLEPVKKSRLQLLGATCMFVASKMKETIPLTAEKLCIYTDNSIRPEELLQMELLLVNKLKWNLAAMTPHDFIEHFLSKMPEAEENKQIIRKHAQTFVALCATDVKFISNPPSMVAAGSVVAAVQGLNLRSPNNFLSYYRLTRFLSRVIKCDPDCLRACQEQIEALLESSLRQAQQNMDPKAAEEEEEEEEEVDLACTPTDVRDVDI
Sequence of CDK6/CyclinD1 (Q00534 whole entry): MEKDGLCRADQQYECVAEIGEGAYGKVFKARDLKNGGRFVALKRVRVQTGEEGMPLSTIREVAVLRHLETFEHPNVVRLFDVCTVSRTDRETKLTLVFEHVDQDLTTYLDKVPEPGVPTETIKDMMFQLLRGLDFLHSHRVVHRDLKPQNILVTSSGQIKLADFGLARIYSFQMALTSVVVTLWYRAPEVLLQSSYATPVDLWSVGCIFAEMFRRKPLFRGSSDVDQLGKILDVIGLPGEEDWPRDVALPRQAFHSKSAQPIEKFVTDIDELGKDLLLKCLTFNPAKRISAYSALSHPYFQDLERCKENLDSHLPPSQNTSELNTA
Sequence of CDK6/CyclinD1 (P24385 whole entry partner): as the sequence (P24385 whole entry partner) above

Turning to “Palbociclib plus fulvestrant [Palbociclib+fulvestrant]”, the entries for the “median PFS” value in experiment [1] (CCNE1 high) and in experiment [1] (CCNE1 low) were 7.6 month and 14.1 month, respectively.

In the case of `CC1(O)CCCC1Oc1nc(NC2CCN(S(=O)(=O)CC(F)(F)F)CC2)ncc1C#N` (single isomer, unassigned) [Example 43a], the IC50 in experiment [2] was less than 10 nM; in experiment [3], 10 to 100 nM; in experiment [4], less than 10 nM; in experiment [5], 10 to 100 nM; in experiment [6], 100 to 1000 nM; in experiment [7], 100 to 1000 nM.

For `CC1(COc2nc(Nc3ccc(S(N)(=O)=O)cc3)ncc2C#N)CCCC1` [Example 12], the IC50 in experiment [2] is less than 10 nM; in experiment [3], 10 to 100 nM; in experiment [4], less than 10 nM; in experiment [5], 100 to 1000 nM; in experiment [6] it was not below 1000 nM; in experiment [7], 10 to 100 nM.

In the case of `N#Cc1cnc(Nc2ccc(S(N)(=O)=O)cc2)nc1OC1CCCC1O` (single isomer, unassigned) [Example 20a], the IC50 is less than 10 nM in experiment [2]; 100 to 1000 nM in experiment [3]; 100 to 1000 nM in experiment [4]; 100 to 1000 nM in experiment [5]; not below 1000 nM in experiment [6]; 100 to 1000 nM in experiment [7].

On to `CCS(=O)(=O)N1CCC(Nc2ncc(C#N)c(OC3CCCC3(C)O)n2)CC1` (single isomer, unassigned) [Example 36b], for which the IC50 is less than 10 nM in experiment [2]; 10 to 100 nM in experiment [3]; less than 10 nM in experiment [4]; 10 to 100 nM in experiment [5]; 100 to 1000 nM in experiment [6]; 100 to 1000 nM in experiment [7].

Take `CC1(O)CC(F)(F)CC1Oc1nc(NC2CCN(S(=O)(=O)CC3CC3)CC2)ncc1C#N` (single isomer, unassigned) [Example 44b]: the IC50 in experiment [2] is less than 10 nM; in experiment [3], 10 to 100 nM; in experiment [4] it was 10 to 100 nM; in experiment [5] it was less than 10 nM; in experiment [6] it was 10 to 100 nM; in experiment [7], 100 to 1000 nM.

Turning to `CC1(O)CCCC1Oc1nc(Nc2ccc(S(N)(=O)=O)cc2)ncc1C#N` (single isomer, unassigned) [Example 23a], the IC50 in experiment [2] was less than 10 nM; in experiment [3], less than 10 nM; in experiment [4], 10 to 100 nM; in experiment [5], 10 to 100 nM; in experiment [6], 100 to 1000 nM; in experiment [7], 10 to 100 nM.

For `Cc1cnc(Nc2ccc(S(=O)(=O)NC(C)C)cc2)nc1OC1CCCC1O` (single isomer, unassigned) [Example 147a], the IC50 in experiment [2] was less than 10 nM; in experiment [3], 10 to 100 nM; in experiment [4] it was not below 1000 nM; in experiment [5], 100 to 1000 nM; in experiment [6], 100 to 1000 nM; in experiment [7], 100 to 1000 nM.
